Laboratory results published in patent US20230241050A1, “APPLICATIONS OF HPK1 KINASE INHIBITOR IN PREVENTING AND/OR TREATING ANIMAL PATHOGEN INFECTION” (ZHUHAI YUFAN BIOTECHNOLOGIES CO., LTD, priority 2020, published 2023).

Experiments:
[1] = test system: feline infectious peritonitis (FIP); test: Clinical survival of cats with clinically confirmed FIP, treatment group vs control group (Example 2); assay type: in vivo, cat; conditions: 14 days; 2.0 mg/kg SC q24h D1-D14 plus supportive treatment, 7 cats vs 8 control cats; both pre-treated with GS-441524 for 3 days; Log Rank and Breslow tests, P < 0.05
Excerpt: A total of 15 cats with clinically confirmed FIP were enrolled, with hydrothorax/ascites, positive CT value by PCR, and no neurological symptoms. 8 cats were allocated into the control group, and 7 cats were allocated into the treatment group.
The groups were pre-treated with GS-441524 for 3 days. For the control group, necessary supportive treatment was given on D1-D14. For the treatment group, after 3 days of observation, necessary supportive treatment and the drug of the present invention (2.0 mg/kg, SC, q24 h) were given on D1-D14.
The occurrence of death or neurological symptoms was judged as clinical death, and the clinical survival curve was plotted after 14 days.

[2] = test system: feline infectious peritonitis (FIP), feline coronavirus positive; test: Treatment of a cat with recurrent feline infectious peritonitis (Example 1): daily clinical observation, body weight, chest X-ray; assay type: in vivo; conditions: for Food intake: D0: Decreased intake - 3; for Mental state: D0: Listless - 3; for Defecation condition / Respiratory state: D0: Normal - 5; for Body temperature Afternoon: D0 value 38.5; for body weight: 2.5 kg at enrollment (D0)
Experimental: Lele, a British shorthair cat, 8 months old, female, unneutered, weighing 2.5 kg. The cat had symptoms of elevated body temperature, mental depression, anorexia, and enlarged abdominal circumference in January, 2020. One week later, the cat was admitted. On January 18, the cat was diagnosed with feline infectious peritonitis (FIP) positive. After being treated with GS-441524 for 3 days, the cat was then given furosemide, Synulox®, prednisolone and itraconazole (P.O., q24h, 10 mg/kg) for 1 month. The drugs were discontinued after ascites regressed. […] The cat was enrolled on April 8, and was treated with the drug of the present invention at 2.0 mg/kg (SC, q24h) on days 1-14 (D1-14). Proper supportive treatments were given at the same time, including adjuvant treatment such as Moringa (a hepatoprotective drug), Lysinphirst (lysine) and Doctor Dolittle® (lactoferrin).
The pharmaceutically active compound described above is a pure powder have the following structure. The compound was added to a 0.9% normal saline (50 mL of endotoxin-free water and 0.45 g of NaCl), and the resulting mixture was uniformly mixed and filtered through a filter membrane to give a clarified solution. The diluted compound was stored in a plastic-sealed sterile vial, stored in a refrigerator at 4° C., gently brought to room temperature before injection, and administered using a disposable syringe. The injection ranged across the back, starting from 2 cm posterior to the scapula to the middle of the lumbar spine, half of the distance of the adjacent chest to flank.
The treatment was given by injection in the morning every day, body temperature, appetite, mental state and respiratory state were measured and evaluated at 15:00 pm, and urination and defecation conditions were recorded.
The body weight increased by 9% during and after the treatment.

## CN1CCC(c2ncc(-c3cnc(N)c(OCc4cccc(C#CC(C)(C)O)c4)c3)s2)CC1 [the drug of the present invention, 4-(3-{2-amino-5-[2-(1-methyl-piperidin-4-yl)thiazol-5-yl]pyridin-3-yloxymethyl}phenyl)-2-methyl-but-3-yn-2-ol]
[1]
  clinical survival curve (death or neurological symptoms = clinical death), treatment group vs control group: significant difference
[2]; D1 (4-9), 2.0 mg/kg SC q24h
  Food intake: Decreased intake - 3
  Mental state: Slightly improved - 3.5
  Defecation condition: Normal
  Respiratory state: Normal
  Body temperature Afternoon: 38.6 °C
[2]; D2 (4-10), 2.0 mg/kg SC q24h
  Food intake: Improved - 4
  Mental state: Improved - 4
  Defecation condition: Normal
  Respiratory state: Normal
  Body temperature Afternoon: 38.1 °C
[2]; D3 (4-11), 2.0 mg/kg SC q24h
  Food intake: Good - 5
  Mental state: Good - 5
  Defecation condition: Normal
  Respiratory state: Normal
  Body temperature Afternoon: 38 °C
[2]; D4 (4-12), 2.0 mg/kg SC q24h
  Food intake: Good
  Mental state: Good
  Defecation condition: Normal
  Respiratory state: Normal
  Body temperature Afternoon: 38.3 °C
[2]; D5 (4-13), 2.0 mg/kg SC q24h
  Food intake: Good
  Mental state: Good
  Defecation condition: Normal
  Respiratory state: Normal
  Body temperature Afternoon: 38.3 °C
[2]; D6 (4-14), 2.0 mg/kg SC q24h
  Food intake: Good
  Mental state: Good
  Defecation condition: Normal
  Respiratory state: Normal
  Body temperature Afternoon: 38.3 °C
[2]; D7 (4-15), 2.0 mg/kg SC q24h
  body weight: 2.75 kg body weight
  Food intake: Good
  Mental state: Good
  Defecation condition: Normal
  Respiratory state: Normal
  Body temperature Afternoon: 38.1 °C
[2]; D8 (4-16), 2.0 mg/kg SC q24h
  Food intake: Good
  Mental state: Good
  Defecation condition: Normal
  Respiratory state: Normal
  Body temperature Afternoon: 38 °C
[2]; D9 (4-17), 2.0 mg/kg SC q24h
  Food intake: Good
  Mental state: Good
  Defecation condition: Normal
  Respiratory state: Normal
  Body temperature Afternoon: 38.2 °C
[2]; D10 (4-18), 2.0 mg/kg SC q24h
  Food intake: Good
  Mental state: Good
  Defecation condition: Normal
  Respiratory state: Normal
  Body temperature Afternoon: 38.3 °C
[2]; D11 (4-19), 2.0 mg/kg SC q24h
  Food intake: Good
  Mental state: Good
  Defecation condition: Normal
  Respiratory state: Normal
  Body temperature Afternoon: 38.4 °C
[2]; D12 (4-20), 2.0 mg/kg SC q24h
  Food intake: Good
  Mental state: Good
  Defecation condition: Normal
  Respiratory state: Normal
  Body temperature Afternoon: 38.5 °C
[2]; D13 (4-21), 2.0 mg/kg SC q24h
  Body temperature Morning: 38.9 °C
  Food intake: Good
  Mental state: Good
  Defecation condition: Normal
  Respiratory state: Normal
  Body temperature Afternoon: 38.5 °C
[2]; D14 (4-22), 2.0 mg/kg SC q24h
  Body temperature Morning: 38.4 °C
  body weight: 2.75 kg body weight
  Food intake: Good
  Mental state: Good
  Defecation condition: Normal
  Respiratory state: Normal
  Body temperature Afternoon: 38.4 °C
[2]; after 2 weeks of treatment, 2.0 mg/kg SC q24h
  clinical response (appetite, mental state, weight): remarkable clinical response with improved appetite and mental state, and weight gain
[2]; during and after the treatment (D1-14, 2.0 mg/kg SC q24h)
  body weight increase: 9%
[2]; since about 7 days after the treatment, 2.0 mg/kg SC q24h
  hydrothorax (chest X-ray): completely regressed
[2]; throughout the treatment (D1-14, 2.0 mg/kg SC q24h), no fever at enrollment
  body temperature maintained in the normal range: 38-38.5 °C
